The values that follow come from patent publication US11453647B2, “Benzimidazole derivatives as adenosine receptor antagonists” (Merck Patent GmbH, priority 2017, dated 2022).

Type in all cases: cell-based
One experiment deals with T1, A2B receptors (Homo sapiens, UniProt P29275).
T1 sequence (P29275 1-332): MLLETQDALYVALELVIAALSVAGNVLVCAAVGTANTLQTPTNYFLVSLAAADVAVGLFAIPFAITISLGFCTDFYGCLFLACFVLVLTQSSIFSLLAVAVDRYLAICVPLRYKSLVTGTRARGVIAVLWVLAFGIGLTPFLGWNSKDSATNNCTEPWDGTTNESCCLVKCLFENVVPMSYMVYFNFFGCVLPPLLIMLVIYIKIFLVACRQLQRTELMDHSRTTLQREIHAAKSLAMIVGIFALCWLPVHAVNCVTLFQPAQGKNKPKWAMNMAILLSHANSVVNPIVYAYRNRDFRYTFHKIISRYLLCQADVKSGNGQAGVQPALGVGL
Briefly: functional cAMP (HTRF) assay, recombinant HEK293 cells expressing human A2B receptor, agonist NECA. The arrangement: expressed in transfected cells; host or cells: HEK293.

The target in a further experiment is T2, human A3 receptor (Homo sapiens, UniProt P0DMS8).
T2 construct: expressed in transfected cells; host or cells: CHO
T2 sequence (P0DMS8 1-318): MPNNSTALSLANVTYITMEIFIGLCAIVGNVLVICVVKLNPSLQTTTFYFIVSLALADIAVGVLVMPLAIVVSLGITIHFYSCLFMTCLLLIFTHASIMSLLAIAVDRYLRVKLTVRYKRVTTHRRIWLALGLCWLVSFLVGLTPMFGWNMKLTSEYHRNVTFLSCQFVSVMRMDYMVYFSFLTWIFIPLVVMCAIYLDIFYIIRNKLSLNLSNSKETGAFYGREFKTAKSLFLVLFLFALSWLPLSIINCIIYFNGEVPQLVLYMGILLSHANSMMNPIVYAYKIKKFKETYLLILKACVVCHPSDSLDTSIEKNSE
Description: functional cAMP (HTRF) assay, recombinant CHO cells expressing human A3 receptor, forskolin, agonist IB-MECA. In a few lines:
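CHO cells (hA1 or hA3) + forskolin + test cpd + agonist (CPA/A1, IB-MECA/A3), 30 min; HTRF cAMP readout; normalized vs inhibitor and DMSO controls, curve fit.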

For the next experiment, the target named is T3, human A1 receptor (Homo sapiens, UniProt P30542).
T3 construct: expressed in transfected cells; host or cells: CHO
T3 sequence (P30542 1-326): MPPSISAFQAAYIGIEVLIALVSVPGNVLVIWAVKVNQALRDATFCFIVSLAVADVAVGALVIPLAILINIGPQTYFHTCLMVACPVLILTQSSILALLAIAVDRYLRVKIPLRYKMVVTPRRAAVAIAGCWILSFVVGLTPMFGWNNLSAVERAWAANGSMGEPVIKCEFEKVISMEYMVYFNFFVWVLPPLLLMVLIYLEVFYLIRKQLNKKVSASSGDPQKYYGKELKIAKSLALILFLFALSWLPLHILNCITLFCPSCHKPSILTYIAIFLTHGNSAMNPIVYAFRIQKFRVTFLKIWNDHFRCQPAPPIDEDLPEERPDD
Briefly: functional cAMP (HTRF) assay, recombinant CHO cells expressing human A1 receptor, forskolin, agonist CPA. As for the experimental part: The functional activities of human A2A, A2B, A1 and A3 receptors were determined by quantification of cAMP, being the second messenger for adenosine receptors.
For human A1 and A3 receptors, recombinant CHO cells, expressing either A1 or A3-receptor, were used. As both receptors couple to Gi proteins, the assay protocol was adapted:
Cells were seeded into 384-well plates, forskolin, test compounds and agonists (CPA for A1- and IB-MECA for A3-receptor) were added. After 30 min incubation, HTRF reagents (cAMP dynamic 2, Cis Bio) were added and the cellular cAMP levels were determined using the ENVISION (Perkin Elmer) plate reader. Obtained raw data were normalized against the inhibitor control and the neural control (DMSO) and the normalized data were fitted using GeneData software.

In another experiment the target is T4, human A2A receptor (Homo sapiens, UniProt P29274).
T4 construct: expressed in transfected cells; host or cells: HEK293
T4 sequence (P29274 whole entry): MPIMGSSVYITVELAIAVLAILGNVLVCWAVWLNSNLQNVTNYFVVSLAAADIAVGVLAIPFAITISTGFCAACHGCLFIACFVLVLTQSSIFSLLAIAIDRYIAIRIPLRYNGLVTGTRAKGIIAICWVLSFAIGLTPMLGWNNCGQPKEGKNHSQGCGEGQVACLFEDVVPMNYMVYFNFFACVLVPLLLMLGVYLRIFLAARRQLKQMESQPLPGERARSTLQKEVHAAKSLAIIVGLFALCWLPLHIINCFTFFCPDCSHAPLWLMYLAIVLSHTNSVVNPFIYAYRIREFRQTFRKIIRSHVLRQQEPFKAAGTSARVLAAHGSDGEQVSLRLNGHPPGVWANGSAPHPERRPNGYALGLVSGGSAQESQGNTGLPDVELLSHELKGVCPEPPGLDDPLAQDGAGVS
Description: functional cAMP (HTRF) assay, recombinant HEK293 cells expressing human A2A receptor, agonist NECA.

As for `COc1ccc(-c2ccccc2)c2nc(NC(=O)c3ccnc(N4CCOCC4)c3)[nH]c12` [compound 7, N-(7-Methoxy-4-phenyl-1H-benzoimidazol-2-yl)-2-morpholin-4-yl-isonicotinamide], the IC50 at A2B receptors was less than 1000 nM; at human A3 receptor, less than 100 nM; on human A1 receptor, greater than 1000 nM; on human A2A receptor, less than 10 nM.
For `COc1ccc(-c2ccccc2)c2nc(NC(=O)c3ccc(N4CCOCC4)nc3)[nH]c12` [compound 8, N-(7-Methoxy-4-phenyl-1H-benzoimidazol-2-yl)-6-morpholin-4-yl-nicotinamide], the IC50 is greater than 1000 nM on A2B receptors, less than 1000 nM at human A3 receptor, greater than 1000 nM on human A1 receptor and less than 10 nM at human A2A receptor.
As to `COc1ccc(-c2ccccc2)c2nc(NC(=O)c3ccc(CN)cc3)[nH]c12` [compound 13, 4-Aminomethyl-N-(7-methoxy-4-phenyl-1H-benzoimidazol-2-yl)-benzamide], the IC50 on A2B receptors was less than 1000 nM; at human A3 receptor, less than 1000 nM; on human A1 receptor it was greater than 1000 nM; at human A2A receptor, less than 10 nM.
With `COc1ccc(C2CCCCC2)c2nc(NC(=O)N3CCC(C)(O)CC3)[nH]c12` [compound 16, 4-Hydroxy-4-methyl-piperidine-1-carboxylic acid (4-cyclohexyl-7-methoxy-1H-benzoimidazol-2-yl)-amide], the IC50 on A2B receptors was greater than 1000 nM; at human A3 receptor, less than 1000 nM; on human A1 receptor, greater than 1000 nM; at human A2A receptor, less than 10 nM.
Consider `COc1ccc(-c2cnn(C)c2)c2nc(NC(=O)c3ccnc(N4CCOCC4)c3)[nH]c12` [compound 26, N-[7-Methoxy-4-(1-methyl-1H-pyrazol-4-yl)-1H-benzoimidazol-2-yl]-2-morpholin-4-yl-isonicotinamide], for which the IC50 at A2B receptors is greater than 1000 nM; at human A3 receptor, less than 1000 nM; at human A1 receptor it was greater than 1000 nM; on human A2A receptor, less than 10 nM.
Regarding `COc1ccc(-c2cnn(C)c2)c2nc(NC(=O)c3ccc(CN(C)C)cc3)[nH]c12` [compound 48, 4-[(dimethylamino)methyl]-N-[7-methoxy-4-(1-methyl-1H-pyrazol-4-yl)-1H-1,3-benzodiazol-2-yl]benzamide], the IC50 is greater than 1000 nM on A2B receptors, greater than 1000 nM on human A3 receptor, greater than 1000 nM on human A1 receptor and less than 10 nM on human A2A receptor.
Regarding `COCc1ccc(C(=O)Nc2nc3c(-c4cnn(C)c4)ccc(OC)c3[nH]2)cc1` [compound 49, N-[7-methoxy-4-(1-methyl-1H-pyrazol-4-yl)-1H-1,3-benzodiazol-2-yl]-4-(methoxymethyl)benzamide], the IC50 at A2B receptors is less than 1000 nM; on human A3 receptor it was less than 100 nM; on human A1 receptor it was greater than 1000 nM; at human A2A receptor it was less than 10 nM.
For `COc1ccc(-c2cnn(C)c2)c2nc(NC(=O)N3CCC(Oc4ccccc4)CC3)[nH]c12` [compound 54, N-[7-methoxy-4-(1-methyl-1H-pyrazol-4-yl)-1H-1,3-benzodiazol-2-yl]-4-phenoxypiperidine-1-carboxamide], the IC50 is less than 1000 nM on A2B receptors, greater than 1000 nM on human A3 receptor, less than 1000 nM at human A1 receptor and less than 100 nM on human A2A receptor.
For the compound `COc1ccc(N2CCOCC2)c2nc(NC(=O)c3ccc(F)cc3)[nH]c12` [compound 63, 4-fluoro-N-[7-methoxy-4-(morpholin-4-yl)-1H-1,3-benzodiazol-2-yl]benzamide], the IC50 at A2B receptors was less than 1000 nM; on human A3 receptor, less than 100 nM; on human A1 receptor, greater than 1000 nM; on human A2A receptor, less than 10 nM.
For the compound `COc1ccc(N2CCOCC2)c2nc(NC(=O)c3ccc(Cn4ccnc4)cc3)[nH]c12` [compound 76, 4-[(1H-imidazol-1-yl)methyl]-N-[7-methoxy-4-(morpholin-4-yl)-1H-1,3-benzodiazol-2-yl]benzamide], the half-inhibitory concentration (IC50) on A2B receptors is less than 1000 nM; on human A3 receptor it was greater than 1000 nM; on human A1 receptor, greater than 1000 nM; at human A2A receptor it was less than 10 nM.
Turning to `COc1ccc(-c2cn[nH]c2)c2nc(NC(=O)N3CCC(C)(O)CC3)[nH]c12` [compound 79, 4-hydroxy-N-[7-methoxy-4-(1H-pyrazol-4-yl)-1H-1,3-benzodiazol-2-yl]-4-methylpiperidine-1-carboxamide], the IC50 at A2B receptors is less than 1000 nM; on human A3 receptor it was greater than 1000 nM; at human A1 receptor it was greater than 1000 nM; on human A2A receptor, less than 100 nM.
Turning to `COc1ccc(-c2cnn(C)c2)c2nc(NC(=O)c3ccc4occc4c3)[nH]c12` [compound 80, N-[7-methoxy-4-(1-methyl-1H-pyrazol-4-yl)-1H-1,3-benzodiazol-2-yl]-1-benzofuran-5-carboxamide], the IC50 at A2B receptors was less than 1000 nM; at human A3 receptor, less than 1000 nM; at human A1 receptor it was greater than 1000 nM; on human A2A receptor, less than 100 nM.
For the compound `COc1ccc(-c2cnn(C)c2)c2nc(NC(=O)c3ccon3)[nH]c12` [compound 84, N-[7-methoxy-4-(1-methyl-1H-pyrazol-4-yl)-1H-1,3-benzodiazol-2-yl]-1,2-oxazole-3-carboxamide], the IC50 at A2B receptors is less than 1000 nM; at human A3 receptor, less than 1000 nM; at human A1 receptor, less than 1000 nM; at human A2A receptor it was less than 100 nM.
On to `COc1ccc(-c2ccncc2)c2nc(NC(=O)N3CCC4(COC4)C3)[nH]c12` [compound 85, N-[7-methoxy-4-(pyridin-4-yl)-1H-1,3-benzodiazol-2-yl]-2-oxa-6-azaspiro[3.4]octane-6-carboxamide], for which the IC50 on A2B receptors was less than 1000 nM; on human A3 receptor, greater than 1000 nM; at human A1 receptor, greater than 1000 nM; on human A2A receptor it was less than 100 nM.
In the case of `COc1ccc(N2CCOCC2)c2nc(NC(=O)c3cnn(C(CO)CCl)c3)[nH]c12` (stereo not shown) [compound 86, 1-(1-chloro-3-hydroxypropan-2-yl)-N-[7-methoxy-4-(morpholin-4-yl)-1H-1,3-benzodiazol-2-yl]-1H-pyrazole-4-carboxamide], the IC50 at A2B receptors is greater than 1000 nM; at human A3 receptor, greater than 1000 nM; on human A1 receptor, greater than 1000 nM; on human A2A receptor, less than 10 nM.
`COc1ccc(C2CCOCC2)c2nc(NC(=O)c3ccc(CN(C)C)cc3)[nH]c12` [compound 88, 4-[(dimethylamino)methyl]-N-[7-methoxy-4-(oxan-4-yl)-1H-1,3-benzodiazol-2-yl]benzamide]: the IC50 on A2B receptors is greater than 1000 nM; on human A3 receptor, greater than 1000 nM; at human A1 receptor, greater than 1000 nM; at human A2A receptor, less than 10 nM.
As for `COc1ccc(-c2cnn(C)c2)c2nc(NC(=O)c3ccnc(Br)c3)[nH]c12` [compound 95, 2-bromo-N-[7-methoxy-4-(1-methyl-1H-pyrazol-4-yl)-1H-1,3-benzodiazol-2-yl]pyridine-4-carboxamide], the IC50 at A2B receptors is less than 1000 nM; at human A3 receptor, less than 10 nM; on human A1 receptor it was less than 1000 nM; at human A2A receptor, less than 10 nM.
Regarding `COc1ccc(-c2cnn(C)c2)c2nc(NC(=O)c3ccc4ocnc4c3)[nH]c12` [compound 98, N-[7-methoxy-4-(1-methyl-1H-pyrazol-4-yl)-1H-1,3-benzodiazol-2-yl]-1,3-benzoxazole-5-carboxamide], the IC50 was less than 1000 nM at A2B receptors, less than 1000 nM at human A3 receptor, greater than 1000 nM at human A1 receptor and less than 100 nM on human A2A receptor.
`COc1ccc(N2CCOCC2)c2nc(NC(=O)c3ccc(O)c(N)c3)[nH]c12` [compound 99, 3-amino-4-hydroxy-N-[7-methoxy-4-(morpholin-4-yl)-1H-1,3-benzodiazol-2-yl]benzamide]: the IC50 on A2B receptors is greater than 1000 nM; on human A3 receptor it was greater than 1000 nM; on human A1 receptor it was greater than 1000 nM; at human A2A receptor, less than 10 nM.
